In patent US8486991B2, “Enantiomerically pure phosphoindoles as HIV inhibitors” (Idenix Pharmaceuticals, Inc., priority 2006, dated 2013):
“And” between values parts separate entries of the source, which are not always exact repeats. Equal values may be shown once. Read-outs that look alike come from different tables or passages of the source.

Tests used:
[1] = target: T1, human DNA polymerase alpha (Homo sapiens, UniProt P09884); assay: Human cellular DNA polymerase alpha assay; type: biochemical
T1 sequence (P09884 1-1462): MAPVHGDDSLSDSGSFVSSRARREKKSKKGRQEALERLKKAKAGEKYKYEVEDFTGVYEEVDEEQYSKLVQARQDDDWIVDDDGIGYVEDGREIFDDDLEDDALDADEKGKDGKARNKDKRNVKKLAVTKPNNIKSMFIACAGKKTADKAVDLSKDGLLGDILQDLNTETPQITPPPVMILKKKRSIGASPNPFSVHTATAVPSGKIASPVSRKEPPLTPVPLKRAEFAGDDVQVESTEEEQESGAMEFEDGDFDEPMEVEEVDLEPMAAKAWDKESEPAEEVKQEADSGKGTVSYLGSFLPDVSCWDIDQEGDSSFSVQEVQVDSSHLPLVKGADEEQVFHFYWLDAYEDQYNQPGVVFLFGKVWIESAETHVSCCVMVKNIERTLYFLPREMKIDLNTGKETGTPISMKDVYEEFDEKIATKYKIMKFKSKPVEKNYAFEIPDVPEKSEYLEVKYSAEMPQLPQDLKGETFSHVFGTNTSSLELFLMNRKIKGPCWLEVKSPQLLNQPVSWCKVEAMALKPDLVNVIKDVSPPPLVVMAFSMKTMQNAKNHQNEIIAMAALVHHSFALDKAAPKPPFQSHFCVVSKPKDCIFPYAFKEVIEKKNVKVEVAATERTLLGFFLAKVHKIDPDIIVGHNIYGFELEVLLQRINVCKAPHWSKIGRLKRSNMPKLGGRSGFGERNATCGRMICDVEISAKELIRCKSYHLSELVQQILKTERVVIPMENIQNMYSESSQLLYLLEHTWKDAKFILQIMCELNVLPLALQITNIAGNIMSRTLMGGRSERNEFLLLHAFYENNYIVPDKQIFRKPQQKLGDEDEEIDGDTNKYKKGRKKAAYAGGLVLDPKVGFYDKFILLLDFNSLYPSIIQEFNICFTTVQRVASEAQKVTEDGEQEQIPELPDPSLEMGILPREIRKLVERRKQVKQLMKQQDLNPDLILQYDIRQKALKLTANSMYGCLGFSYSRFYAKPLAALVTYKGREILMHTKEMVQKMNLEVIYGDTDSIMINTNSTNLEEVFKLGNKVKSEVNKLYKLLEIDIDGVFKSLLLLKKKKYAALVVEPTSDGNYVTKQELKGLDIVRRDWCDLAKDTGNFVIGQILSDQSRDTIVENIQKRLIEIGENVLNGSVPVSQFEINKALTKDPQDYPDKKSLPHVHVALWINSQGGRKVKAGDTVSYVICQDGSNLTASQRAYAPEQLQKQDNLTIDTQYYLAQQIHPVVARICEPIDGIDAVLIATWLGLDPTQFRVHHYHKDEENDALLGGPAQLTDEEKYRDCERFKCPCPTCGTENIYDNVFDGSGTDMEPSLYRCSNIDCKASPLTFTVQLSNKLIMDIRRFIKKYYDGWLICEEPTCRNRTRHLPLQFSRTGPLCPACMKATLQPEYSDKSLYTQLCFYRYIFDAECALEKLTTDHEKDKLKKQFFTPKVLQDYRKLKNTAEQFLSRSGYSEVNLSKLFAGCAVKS
Excerpt: HIV RT, like other viral polymerase, shares limited structural homology with the cellular DNA polymerases responsible for normal nuclear and mitochondrial DNA synthesis and repair. This raises the formal possibility that inhibitors of HIV RT might inhibit cellular polymerases, resulting in cellular toxicity. In particular, inhibition of polymerase gamma has the potential to result in mitochondrial toxicity. The ability of Compound I and Compound III to inhibit cellular DNA polymerases was assessed using standard in vitro assays (Table 5).

[2] = system: HIV-1 BH10 K103N mutant virus; assay: microbe, parasite or virus in culture; type: cell-based; settings: for Fold Change, K103N: Table 9, CPE
Protocol: The activity of the compounds was also assessed with the same virus and cell type using a different assay readout based on cytopathic effect (CPE).
MT-4 cells (Source: NIH Catalog #120) were seeded onto 96-well cell culture plates (1×10^4 cells per well in 50 μL).
The final DMSO concentration in the assay was 0.5% in 120 μL. Cell cultures were then incubated at 37° C./5% CO2 for 4 days. Then, Cell Titer 96 AQueous One Solution Cell Proliferation Assay (Promega) was used to measure cell viability. Briefly, the One Solution Reagent was added directly to culture wells (20 μL/well), incubated for 5 hours, and the absorbance was recorded at 492 nm using the Sunrise Tecan Spectrophotometer.
The EC50 values were determined from the percent inhibition versus concentration data using a sigmoidal non-linear regression analysis based on four parameters with Tecan Magellan software.

HIV-1 W.T. (NL4-3) virus = assay: PBMC cell assay, W.T. (NL4-3); type: cell-based
[3] = system: HIV-1 W.T. strains BH10, NL4-3 and IIIB; assay: Drug susceptibility assays, 3 W.T. strains in 5 human cell lines (ranges); type: cell-based
Excerpt: The virus and host-cell dependency of Compound I, Compound III and control drugs was further examined in drug susceptibility assays performed across 3 different subtype B wild-type HIV-1 strains and 5 different cell lines.

HIV-1 BH10 W.T. = assay: Anti-HIV-1 BH10 W.T. activity in presence of HS or AAG; type: cell-based; settings: for Fold Change, 10% Fetal Bovine Serum / Fold Change, 45% Human Serum / Fold Change, 45% Human Serum + AAG / Fold Change, 10% Fetal Bovine Serum + AAG: Table 20; for Fold Change, 45% Human Serum / Fold Change, 45% Human Serum + AAG / Fold Change, 10% Fetal Bovine Serum + AAG: vs 10% FBS only
[4] = Cellular cytotoxicity, 4 days, MTS, U937; type: cell-based; settings: human, Table 21, read-out: Average CC50 Values ± Standard Deviation, U937
Protocol: (§1) Cell viability was measured by standard MTT or MTS staining.
(§2) Following drug exposure for 4 days, cell viability was measured by MTS staining and CC50 values were determined. Drug concentrations ranged from 0.005 μM to 100 μM.

[5] = Cellular cytotoxicity, 4 days, MTS, MT-2; type: cell-based; settings: human, Table 21, read-out: Average CC50 Values ± Standard Deviation, MT-2
Protocol: as §1, §2

[6] = Longer term cytotoxicity, 12 days, MTS, HepG2; settings: human
Protocol: as §1
(§3) Cells were repeatedly treated with a range of drug concentrations (0.005 to 100 μM) for 9 (HeLa) or 12 days (HuH7, HepG2).

[7] = Longer term cytotoxicity, HeLa, HuH7 and HepG2 (ranges); settings: human, HuH7 and HepG2, 9-12 day testing
Protocol: as §1, §3

[8] = Table 5, read-out: Average IC50 Values ± Standard Deviation, DNA Pol Alpha
[9] = Human immunodeficiency virus 1, MT4, read-out: Average EC50 Values ± Standard Deviation, K103N
[10] = Human immunodeficiency virus 1, Table 17; over all virus/host combinations; read-out: Mean Activity Range
[11] = Human immunodeficiency virus 1; read-out: EC50 range, 3 HIV-1 viral strains in 5 host human cell lines
[12] = Human immunodeficiency virus 1, Table 19, AAG 1 mg/ml, read-out: Average EC50 Values ± Standard Deviation, 10% Fetal Bovine Serum + AAG
[13] = Human immunodeficiency virus 1, Table 19, AAG 1 mg/ml, read-out: Average EC50 Values ± Standard Deviation, 45% Human Serum + AAG
[14] = Human immunodeficiency virus 1, Table 19, read-out: Average EC50 Values ± Standard Deviation, 10% Fetal Bovine Serum
[15] = Human immunodeficiency virus 1, Table 19, read-out: Average EC50 Values ± Standard Deviation, 45% Human Serum
[16] = Human immunodeficiency virus 1, text b887, read-out: mean EC50 values, 45% HS+AAG
[17] = U-937 cells (monocytes derived from a histiocytic lymphoma)
[18] = HuH7 and HepG2 cells (range over the three lines)
[19] = Human immunodeficiency virus 1, MT4, read-out: EC50, K103N
[20] = Human immunodeficiency virus 1, NL43, PBMC, read-out: Average EC50 Values ± Standard Deviation, W.T. (NL4-3)
[21] = Human immunodeficiency virus 1, NL43, PBMC, read-out: mean EC50, NL4-3 strain in human PBMC

SMILES	Average IC50 Values ± Standard Deviation, DNA Pol Alpha ([1]; Table 5)	IC50 [1, 8]	EC50 [2, 9]	EC50 [3, 10]	EC50 [3, 11]	EC50 (HIV-1 BH10 W.T.; [12])	EC50 (HIV-1 BH10 W.T.; [13])	EC50 (HIV-1 BH10 W.T.; [14])	EC50 (HIV-1 BH10 W.T.; [15])	EC50 (HIV-1 BH10 W.T.; [16])	CC50 at 4 days [4, 17]	CC50 at 4 days ([5]; MT-2 cells (leukemia T cells))	CC50 at 12 days ([6]; HepG2 liver cells)	CC50 [7, 18]	EC50 [2, 19]	Fold Change, K103N [2]	EC50 (HIV-1 W.T. (NL4-3) virus; [20])	EC50 (HIV-1 W.T. (NL4-3) virus; [21])	Fold Change, 10% Fetal Bovine Serum (HIV-1 BH10 W.T.)	Fold Change, 45% Human Serum (HIV-1 BH10 W.T.)	further results
O=C1Nc2ccc(Cl)cc2C(C#CC2CC2)(C(F)(F)F)O1 (stereo not drawn) [EFV, 6-chloro-4-cyclopropylethynyl-4-trifluoromethyl-1,4-dihydro-2H-3,1-benzoxazin-2-one, reference compound]	did not reach an IC50	109000 ± 40900 nM	41 ± 13 nM	0.8 ± 2.3 nM	0.4 to 3.2 nM	5 ± 2.3 nM	11.6 ± 7.4 nM	1.6 ± 0.5 nM	11.5 ± 3.9 nM	11.6 nM	23200 ± 1000 nM	24600 ± 4500 nM	80600 ± 12100 nM	48000 to 81000 nM	–	–	–	–	–	–	IC50 ([1]; Table 6, N=4, read-out: Mean IC50 Values ± Standard Deviation, DNA Pol Alpha): 109000 ± 40900 nM; EC50 (HIV-1 W.T. (NL4-3) virus; Human immunodeficiency virus 1, NL43, Table 14, PBMC, read-out: Average EC50 Values ± Standard Deviation, W.T. (NL4-3)): 2.1 ± 0.7 nM
CO[P@](=O)(c1cc(C)cc(/C=C/C#N)c1)c1c(C(N)=O)[nH]c2ccc(Cl)c(F)c12 [Compound I, (2-Carbamoyl-5-chloro-4-fluoro-1H-indol-3-yl)-[3-((E)-2-cyano-vinyl)-5-methyl-phenyl]-(R)-phosphinic acid methyl ester]	did not reach an IC50	–	0.3 ± 0.1 nM	–	–	–	–	–	–	–	–	–	–	–	0.26 ± 0.057 nM	1.0 ± 0.3 fold	1.5 ± 0.7 nM	1.5 nM	1 fold	15.9 ± 11.1 fold	IC50 ([1]; Average IC50 Values ± Standard Deviation, DNA Pol Alpha, Table 5): 146000 ± 44500 nM; IC50 ([1]; Mean IC50 Values ± Standard Deviation, DNA Pol Alpha, Table 6, N=4): 146000 ± 44500 nM; EC50 ([3]; Human immunodeficiency virus 1, read-out: EC50 range, 3 HIV-1 viral strains in 5 host human cell lines): 0.5 to 2 nM; EC50 ([3]; Human immunodeficiency virus 1, read-out: Mean Activity Range, Table 17; over all virus/host combinations): 0.5 nM; EC50 (HIV-1 BH10 W.T.; Human immunodeficiency virus 1, read-out: Average EC50 Values ± Standard Deviation, 10% Fetal Bovine Serum): 1.1 ± 0.4 nM; EC50 (HIV-1 BH10 W.T.; Human immunodeficiency virus 1, read-out: Average EC50 Values ± Standard Deviation, 10% Fetal Bovine Serum + AAG): 2.9 ± 1.2 nM; EC50 (HIV-1 BH10 W.T.; Human immunodeficiency virus 1, read-out: Average EC50 Values ± Standard Deviation, 45% Human Serum): 14.6 ± 6.3 nM; EC50 (HIV-1 BH10 W.T.; Human immunodeficiency virus 1, read-out: Average EC50 Values ± Standard Deviation, 45% Human Serum + AAG): 19 ± 1.7 nM; EC50 (HIV-1 BH10 W.T.; Human immunodeficiency virus 1, read-out: mean EC50 values, 45% HS+AAG): 19 nM; Fold Change, 45% Human Serum + AAG (HIV-1 BH10 W.T.): 24.8 fold and 19.5 fold; Fold Change, 10% Fetal Bovine Serum + AAG (HIV-1 BH10 W.T.; listed as Cmpd I): 2.7 ± 0.7 fold; Fold Change, 45% Human Serum + AAG (HIV-1 BH10 W.T.; listed as Cmpd I): 19.5 ± 7.6 fold; CC50 at 4 days [4]: 26500 ± 500 nM; CC50 at 4 days [5]: 23500 ± 1000 nM; CC50 at 12 days [6]: 25700 ± 3260 nM; CC50 ([7]; CC50 range): 23500 to 31500 nM
CO[P@](=O)(c1cc(C)cc(/C=C/C#N)c1)c1c(C(N)=O)[nH]c2ccc(Cl)cc12 [Compound III, (2-Carbamoyl-5-chloro-1H-indol-3-yl)-[3-((E)-2-cyano-vinyl)-5-methyl-phenyl]-(R)-phosphinic acid methyl ester]	did not reach an IC50	159000 ± 84300 nM	0.1 ± 0.1 nM	0.5 nM	0.5 to 1.7 nM	2.8 ± 0.4 nM	32.6 ± 7.3 nM	1.2 ± 0.4 nM	21.9 ± 11.7 nM	32.6 nM	24600 ± 1900 nM	25900 ± 2100 nM	23500 ± 1510 nM	23500 to 31500 nM	0.14 ± 0.052 nM	1.1 ± 0.3 fold	1.5 ± 0.5 nM	1.5 nM	1 fold	17.0 ± 6.3 fold	Fold Change, 45% Human Serum + AAG (HIV-1 BH10 W.T.): 19.5 fold and 24.8 fold; Fold Change, 10% Fetal Bovine Serum + AAG (HIV-1 BH10 W.T.; listed as Cmpd III): 2.1 ± 0.5 fold; Fold Change, 45% Human Serum + AAG (HIV-1 BH10 W.T.; listed as Cmpd III): 24.8 ± 3.8 fold
